Laboratory results from patent US20080167387A1, “Microglia Facilitated Amyloidogenesis Assay” (Pfizer Inc., priority 2005, published 2008).
Entries after “also recorded” stand apart in the source; their conditions may differ. Where two headings read alike, the source gives them in different places.

Experiments:
[1] = test system: amyloid formation from Aβ(1-42) peptides mediated by rat primary microglia; assay: Microglial-facilitated amyloidogenesis (MFA) assay, thioflavin S staining; assay type: cell-based; settings: for amyloid formation mediated by microglia (thioflavin S staining) / amyloid formation mediated by rat primary microglia (thioflavin S staining): 37° C., 18 hours; for amyloid formation mediated by rat primary microglia (thioflavin S staining): 0.32 μM or 3.2 μM
Experimental: Primary rat brain microglia prepared as described in Example 1, were plated into Falcon black/clear 96 well plates at a concentration of 2×10^5 cells per well. The microglia were allowed to attach to cell walls after incubation at 37° C. for several hours to overnight. Fresh DMEM, with 10% fetal bovine serum, 0.1% penicillin/streptomycin and L-glutamine at 200 mM was used to replace the old media, while cells were gently washed to remove debris and dead cells.
[…] (The pre-treatment step is optional.) After pre-treatment, the candidate compound and Aβ (1-42) peptides were added to the pre-treated cells. The final concentration of Aβ (1-42) peptides was 10 μM. […] The final volume for each well was about 100 μl/well.
Aβ (1-42) peptides and Aβ (1-40) peptides, obtained from American Peptides of Sunnyvale, Calif., were stored at −20° C. Before use, Aβ (1-42) peptides were allowed to warm to room temperature for 15 minutes. To dissolve the Aβ (1-42) peptides, 200 μl of sterile water was added to the peptides. Each sample of peptides was vortexed to dissolve the peptides. Each sample was then diluted with 19 mls of MSFM. The final concentration of Aβ (1-42) peptides was 10 μM.
[…] After incubation, microglia were fixed with 100 μl of 95% ethanol and 5% acetic acid, which was directly poured into the media, and then incubated for 5 min. The media were poured out, and another 100 μl of fresh fixative having 95% ethanol and 5% acetic acid was added to the microglia for 10 min.
Fixed cells were stained with 100 μl thioflavin S solution, obtained from Sigma of St Louis, Mo. for approximately 3-5 min. Thioflavin S solution was 0.125 mg/ml in 40% ethanol, filtered through #1 Whatman filter paper before use.
Cells were washed twice, each time for 5 min, with 100 μl of 70% ethanol. After the washes, the cells were examined using an FITC filter under a fluorescent microscope. For each well, 3 images were collected and images were captured on a Zeiss Axiovert 100 M, with a 10× objective, using a digital CCD camera, and using MicroMax obtained from Roper Instruments of Tuscon, Ariz. Each treatment condition was run in triplicate, with 3 images collected per well to avoid areas with sparse cell growth and debris. Relative fluorescence intensity was measured.

rat primary microglia = assay: Microglial viability, MTT reaction product
Experimental: The viability of microglia was also determined by measuring the level of the tetrazolium salt 3,[4,5-dimethylthiazol-2-yl]-2,5-diphenyltetrazolium bromide (MTT) reaction product, using the method provided by Trevigen Inc. of Gaithersburg, Md.

[2] = test system: intracellular cAMP in rat primary microglia; assay: Level of intracellular cAMP in microglia; assay type: cell-based; settings: 1 μM, about 20 minutes
Experimental: The effect on the level of intracellular cAMP in microglia by PGE2 was also investigated. Rat primary microglia were prepared using the methods described in Example 1, and were exposed to PGE2, at a concentration of 1 μM, for about 20 minutes. […] Microglial viability was investigated by measuring the MTT reaction product in microglia.

[3] = 32 nM-10 μM, one hour prior to 10 μM Aβ(1-42)
[4] = Example 15, prostaglandin E2 receptor agonists

Structure (SMILES): CCCC1([C@H](O)C/C=C/[C@H]2[C@H](O)CC(=O)[C@@H]2CCCCCCC(=O)OC)CCC1 [butaprost]
- amyloid formation mediated by microglia (thioflavin S staining) [1, 3]: inhibit
- microglial viability (MTT reaction product) (rat primary microglia; [4]): neither butaprost nor sulprostone had any effect

Structure (SMILES): CC[C@H](C)C(=O)O[C@H]1C[C@@H](C)C=C2C=C[C@H](C)[C@H](CC[C@@H]3C[C@@H](O)CC(=O)O3)[C@H]21 [lovastatin]
- result in the MFA assay ([1]; conditions not given): very positively

Structure (SMILES): CCCCc1ccc(CN(CCCCCCC(=O)O)S(C)(=O)=O)cc1 [Compound II]
- amyloid formation mediated by microglia (thioflavin S staining) [1, 3]: inhibited

Structure (SMILES): CS(=O)(=O)NC(=O)CCC/C=C\C[C@H]1C(=O)C[C@@H](O)[C@@H]1/C=C/[C@@H](O)COc1ccccc1 [sulprostone]
- microglial viability (MTT reaction product) (rat primary microglia; [4]): neither butaprost nor sulprostone had any effect

Structure (SMILES): CC(C)(C)c1ccc(CN(Cc2cccc(OCC(=O)O)c2)S(=O)(=O)c2cccnc2)cc1 [Compound I, (3-{[(4-tert-Butyl-benzyl)-(pyridine-3-sulfonyl)-amino]-methyl}-phenoxy)-acetic acid]
- amyloid formation mediated by microglia (thioflavin S staining) [1, 3]: inhibited

Structure (SMILES): CCCCC[C@H](O)/C=C/[C@H]1[C@H](O)CC(=O)[C@@H]1C/C=C\CCCC(=O)O [PGE2, Prostaglandin E2]
- level of intracellular cAMP in microglia [2]: significantly increased
- level of intracellular cAMP in microglia ([2]; listed as prostaglandin subtype EP2): increases
- amyloid formation mediated by rat primary microglia (thioflavin S staining) ([1]; from one hour prior to 10 μM Aβ(1-42)): able to reduce
- amyloid formation mediated by rat primary microglia (thioflavin S staining) ([1]; from one hour prior to 10 μM Aβ(1-42), listed as prostaglandin EP2 sub-type): inhibitory effect
- microglial viability (MTT reaction product) (rat primary microglia): did not lead to any decrease

Structure (SMILES): CC(C)c1c(C(=O)Nc2ccccc2)c(-c2ccccc2)c(-c2ccc(F)cc2)n1CC[C@@H](O)C[C@@H](O)CC(=O)O [atorvastatin]
- result in the MFA assay ([1]; conditions not given): very positively

Structure (SMILES): CCCC(=O)Nc1ncnc2c1ncn2[C@@H]1O[C@@H]2COP(=O)(O)O[C@H]2[C@H]1OC(=O)CCC [db-cAMP, dibutyryl-cAMP]
- amyloid formation mediated by microglia (thioflavin S staining) ([1]; db-cAMP 8-80 μM, 8-Br cAMP 25-250 μM, from one hour prior to 10 μM Aβ(1-42)): inhibited; also recorded: inhibition
- microglial viability (MTT reaction product) (rat primary microglia; Example 13, cAMP analogs): neither db-cAMP nor 8-Br cAMP had any effect

Structure (SMILES): NC[C@H](O)c1ccc(O)c(O)c1 [Norepinephrine]
- cell-mediated amyloidogenesis ([1]; conditions not given): blocks

Structure (SMILES): CC[C@H](C)C(=O)O[C@H]1CCC=C2C=C[C@H](C)[C@H](CC[C@@H]3C[C@@H](O)CC(=O)O3)[C@H]21 [mevastatin]
- result in the MFA assay ([1]; conditions not given): very positively
